This note sets out measurements from US12503438B2, “Compounds for the treatment of kinase-dependent disorders” (Exelixis, Inc., priority 2019, dated 2025).

What all share (format): cell-based
In one test the target is Met (Homo sapiens, UniProt P08581). Description: Met autophosphorylation ELISA in PC-3 cells. On the set-up: endogenous in cells; host or cells: PC-3 prostate cancer cells (ATCC #CRL-1435). Conditions: cellular activity, HGF-stimulated, phospho-Met ELISA, read-out: c-Met IC50. The procedure: PC-3 prostate cancer cells (ATCC #CRL-1435) were seeded at 4×10^4 cells/well onto 24-well plates (Greiner #662165), in DMEM (Thermo Fisher #11995-040) containing 10% FBS (Thermo Fisher #26140-079), 1% MEM NEAA (Thermo Fisher #11140-050), 1% GlutaMax (Thermo Fisher #35050-061), and 1% Penicillin Streptomycin (Thermo Fisher #15140-122). PC-3 cells were incubated at 37° C., 5% CO2 for 24 h and then starved for 3 h in serum-free medium. Test compounds were serially diluted to produce an 8-point dose curve in fresh serum-free medium to a final concentration of 0.3% DMSO (vehicle) and added to the cells and incubated for 1 h. Cells were then stimulated with 100 ng/mL recombinant human HGF (R&D Systems #294-HG-250) for 10 min, washed with cold PBS and immediately lysed with 130 μL of cold 1× lysis buffer [20 mM Tris, 137 mM sodium chloride, 2 mM EDTA, 10% glycerol, 1% NP-40 alternative, 1 mM activated sodium orthovanadate, 1 mM PefaBloc SC (Sigma-Aldrich #11429868001), protease/phosphatase inhibitor tablet (Thermo Fisher #A32959)]. Lysates were clarified by centrifugation and 100 μL/well added into the PathScan phospho-Met (panTyr) Sandwich ELISA (Cell Signaling Technology #7333). Assay was performed according to manufacturer's instructions. Positive control wells (100% activity) contained HGF-stimulated, DMSO-treated cell lysates. Negative control wells (0% activity) contained HGF-stimulated, reference inhibitor-treated cell lysates. IC50 values were calculated by nonlinear regression analysis using a 4-parameter logistic curve fit in ActivityBase XE (IDBS).
Sequence of Met (P08581 25-1390): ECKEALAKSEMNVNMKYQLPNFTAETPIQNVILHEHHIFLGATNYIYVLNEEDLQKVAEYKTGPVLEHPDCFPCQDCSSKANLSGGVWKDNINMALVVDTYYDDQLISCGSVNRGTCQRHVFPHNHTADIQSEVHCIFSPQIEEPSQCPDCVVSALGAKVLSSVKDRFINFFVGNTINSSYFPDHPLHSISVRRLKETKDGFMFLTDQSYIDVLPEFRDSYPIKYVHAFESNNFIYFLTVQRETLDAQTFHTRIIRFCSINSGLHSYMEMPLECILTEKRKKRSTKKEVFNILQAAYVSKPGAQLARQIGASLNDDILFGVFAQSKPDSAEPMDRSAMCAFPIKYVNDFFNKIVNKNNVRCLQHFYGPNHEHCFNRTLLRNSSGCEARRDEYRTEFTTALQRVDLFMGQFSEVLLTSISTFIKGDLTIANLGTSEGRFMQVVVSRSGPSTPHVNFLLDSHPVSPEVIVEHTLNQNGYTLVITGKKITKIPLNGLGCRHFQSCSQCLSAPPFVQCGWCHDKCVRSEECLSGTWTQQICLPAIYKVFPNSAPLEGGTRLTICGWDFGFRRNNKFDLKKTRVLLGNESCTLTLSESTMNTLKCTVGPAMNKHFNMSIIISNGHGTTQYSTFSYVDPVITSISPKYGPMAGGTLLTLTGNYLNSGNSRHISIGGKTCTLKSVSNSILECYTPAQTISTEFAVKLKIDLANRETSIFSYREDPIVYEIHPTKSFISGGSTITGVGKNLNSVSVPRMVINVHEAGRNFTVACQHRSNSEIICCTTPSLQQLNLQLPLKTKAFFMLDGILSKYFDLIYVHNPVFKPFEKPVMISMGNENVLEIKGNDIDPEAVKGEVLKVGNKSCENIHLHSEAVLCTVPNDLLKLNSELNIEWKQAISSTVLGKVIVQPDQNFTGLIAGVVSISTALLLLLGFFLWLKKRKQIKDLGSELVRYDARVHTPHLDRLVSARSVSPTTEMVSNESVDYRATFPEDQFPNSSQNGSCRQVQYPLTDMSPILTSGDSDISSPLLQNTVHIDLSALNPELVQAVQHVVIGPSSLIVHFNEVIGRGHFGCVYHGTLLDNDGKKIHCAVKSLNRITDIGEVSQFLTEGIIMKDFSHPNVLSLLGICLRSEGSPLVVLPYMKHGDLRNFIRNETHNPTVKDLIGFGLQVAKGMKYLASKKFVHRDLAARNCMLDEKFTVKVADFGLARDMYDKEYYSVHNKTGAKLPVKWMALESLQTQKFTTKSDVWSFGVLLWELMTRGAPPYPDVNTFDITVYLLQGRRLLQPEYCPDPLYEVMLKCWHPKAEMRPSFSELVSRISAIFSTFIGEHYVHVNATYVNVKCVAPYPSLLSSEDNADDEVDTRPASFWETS
On the technique in general: In an ELISA, binding on a coated surface is turned into a signal by an enzyme label.

A further test concerns the target T1, AXL (Homo sapiens, UniProt P30530).
T1 construct: endogenous in cells; host or cells: A-172 glioblastoma cells (ATCC #CRL-1620)
T1 sequence (P30530 26-894): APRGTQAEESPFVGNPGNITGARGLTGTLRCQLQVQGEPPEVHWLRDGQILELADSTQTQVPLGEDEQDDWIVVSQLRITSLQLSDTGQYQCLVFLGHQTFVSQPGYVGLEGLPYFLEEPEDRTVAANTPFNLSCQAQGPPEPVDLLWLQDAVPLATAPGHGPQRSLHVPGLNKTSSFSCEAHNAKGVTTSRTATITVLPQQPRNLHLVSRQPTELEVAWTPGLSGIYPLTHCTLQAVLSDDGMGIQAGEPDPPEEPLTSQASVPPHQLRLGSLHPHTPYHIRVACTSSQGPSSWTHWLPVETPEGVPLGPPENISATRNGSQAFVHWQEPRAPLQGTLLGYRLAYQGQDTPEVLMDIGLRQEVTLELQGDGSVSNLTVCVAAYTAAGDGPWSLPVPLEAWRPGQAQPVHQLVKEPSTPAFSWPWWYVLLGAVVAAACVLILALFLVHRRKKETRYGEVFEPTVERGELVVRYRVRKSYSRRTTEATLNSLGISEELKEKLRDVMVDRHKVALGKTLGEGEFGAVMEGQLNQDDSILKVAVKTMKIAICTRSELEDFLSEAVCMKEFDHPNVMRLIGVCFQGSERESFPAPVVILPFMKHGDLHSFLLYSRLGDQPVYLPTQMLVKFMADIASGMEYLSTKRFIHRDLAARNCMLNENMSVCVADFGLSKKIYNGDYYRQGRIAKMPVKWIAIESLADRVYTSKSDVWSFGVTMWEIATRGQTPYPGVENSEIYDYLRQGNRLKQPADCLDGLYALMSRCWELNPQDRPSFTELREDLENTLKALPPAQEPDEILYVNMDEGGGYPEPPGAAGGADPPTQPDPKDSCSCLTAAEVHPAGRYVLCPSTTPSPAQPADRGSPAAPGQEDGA
The test can be described thus: AXL autophosphorylation ELISA in A-172 cells. Conditions: cellular activity, Gas6-stimulated, phospho-AXL ELISA. The procedure: A-172 glioblastoma cells (ATCC #CRL-1620) were seeded at 2.5×10^5 cells/well onto 24-well plates (Greiner #662165), in DMEM (Thermo Fisher #11995-040) containing 10% FBS (Thermo Fisher #26140-079), 1% MEM NEAA (Thermo Fisher #11140-050), 1% GlutaMax (Thermo Fisher #35050-061) and 1% Penicillin Streptomycin (Thermo Fisher #15140-122). A-172 cells were incubated at 37° C., 5% CO2 for 24 h and then starved for 24 h in serum-free medium. Test compounds were serially diluted to produce an 8-point dose curve in fresh serum-free medium to a final concentration of 0.3% DMSO (vehicle) and added to the cells and incubated for 1 h. Cells were then stimulated with 1 μg/mL recombinant human Gas6 (R&D Systems #885-GSB-500) for 15 min, washed with cold PBS and immediately lysed with 150 μL of cold 1× lysis buffer [20 mM Tris, 137 mM sodium chloride, 2 mM EDTA, 10% glycerol, 1% NP-40 alternative, 1 mM activated sodium orthovanadate, 1 mM PefaBloc SC (Sigma-Aldrich #11429868001), protease/phosphatase inhibitor tablet (Thermo Fisher #A32959)]. Lysates were collected and 100 μL/well added into the human phospho-AXL DuoSet IC ELISA (R&D Systems #DYC2228-2). Assay was performed according to manufacturer's instructions and sample phospho-AXL concentrations were extrapolated using human phospho-AXL control (R&D Systems #841645) as a standard. Positive control wells (100% activity) contained Gas6-stimulated, DMSO-treated cell lysates. Negative control wells (0% activity) contained Gas6-stimulated, reference inhibitor-treated cell lysates. IC50 values were calculated by nonlinear regression analysis using a 4-parameter logistic curve fit in ActivityBase XE (IDBS).

The next test has as its target KDR (Homo sapiens, UniProt P35968). Description: KDR autophosphorylation ELISA in HUVEC cells. Conditions: cellular activity, VEGF165-stimulated, phospho-KDR ELISA. Set-up: endogenous in cells; host or cells: HUVEC (Lonza #C2519A). Here is the method: Human umbilical vein endothelial cells or HUVEC (Lonza #C2519A) were seeded at 2×10^4 cells/well onto 96-well plates (Corning #3904), in EGM-2 growth medium (Lonza #CC-3162) containing 1% Penicillin Streptomycin (Thermo Fisher #15140-122). HUVEC cells were incubated at 37° C., 5% CO2 for 24 h and then starved for 24 h in serum-free EBM-2 basal medium (Lonza #CC-3156) containing 1% Penicillin Streptomycin. Test compounds were serially diluted to produce an 8-point dose curve in fresh serum-free medium to a final concentration of 0.3% DMSO (vehicle) and added to the cells and incubated for 1 h. Cells were then stimulated with 100 ng/mL recombinant human VEGF165 (R&D Systems #293-VE-500) for 5 min, washed with cold PBS, and immediately lysed with 130 μL of cold 1× lysis buffer [20 mM Tris, 137 mM sodium chloride, 2 mM EDTA, 10% glycerol, 1% NP-40 alternative, 1 mM activated sodium orthovanadate, 1 mM PefaBloc SC (Sigma-Aldrich #11429868001), protease/phosphatase inhibitor tablet (Thermo Fisher #A32959)]. Lysates were collected and 100 μL/well added into the human phospho-KDR DuoSet IC ELISA (R&D Systems #DYC1766-2). Assay was performed according to manufacturer's instructions and sample phospho-KDR concentrations were extrapolated using human phospho-KDR control (R&D Systems #841421) as a standard. Positive control wells (100% activity) contained VEGF165-stimulated, DMSO-treated cell lysates. Negative control wells (0% activity) contained non-stimulated cell lysates. IC50 values were calculated by nonlinear regression analysis using a 4-parameter logistic curve fit in ActivityBase XE (IDBS).

Sequence of KDR (P35968 20-1356): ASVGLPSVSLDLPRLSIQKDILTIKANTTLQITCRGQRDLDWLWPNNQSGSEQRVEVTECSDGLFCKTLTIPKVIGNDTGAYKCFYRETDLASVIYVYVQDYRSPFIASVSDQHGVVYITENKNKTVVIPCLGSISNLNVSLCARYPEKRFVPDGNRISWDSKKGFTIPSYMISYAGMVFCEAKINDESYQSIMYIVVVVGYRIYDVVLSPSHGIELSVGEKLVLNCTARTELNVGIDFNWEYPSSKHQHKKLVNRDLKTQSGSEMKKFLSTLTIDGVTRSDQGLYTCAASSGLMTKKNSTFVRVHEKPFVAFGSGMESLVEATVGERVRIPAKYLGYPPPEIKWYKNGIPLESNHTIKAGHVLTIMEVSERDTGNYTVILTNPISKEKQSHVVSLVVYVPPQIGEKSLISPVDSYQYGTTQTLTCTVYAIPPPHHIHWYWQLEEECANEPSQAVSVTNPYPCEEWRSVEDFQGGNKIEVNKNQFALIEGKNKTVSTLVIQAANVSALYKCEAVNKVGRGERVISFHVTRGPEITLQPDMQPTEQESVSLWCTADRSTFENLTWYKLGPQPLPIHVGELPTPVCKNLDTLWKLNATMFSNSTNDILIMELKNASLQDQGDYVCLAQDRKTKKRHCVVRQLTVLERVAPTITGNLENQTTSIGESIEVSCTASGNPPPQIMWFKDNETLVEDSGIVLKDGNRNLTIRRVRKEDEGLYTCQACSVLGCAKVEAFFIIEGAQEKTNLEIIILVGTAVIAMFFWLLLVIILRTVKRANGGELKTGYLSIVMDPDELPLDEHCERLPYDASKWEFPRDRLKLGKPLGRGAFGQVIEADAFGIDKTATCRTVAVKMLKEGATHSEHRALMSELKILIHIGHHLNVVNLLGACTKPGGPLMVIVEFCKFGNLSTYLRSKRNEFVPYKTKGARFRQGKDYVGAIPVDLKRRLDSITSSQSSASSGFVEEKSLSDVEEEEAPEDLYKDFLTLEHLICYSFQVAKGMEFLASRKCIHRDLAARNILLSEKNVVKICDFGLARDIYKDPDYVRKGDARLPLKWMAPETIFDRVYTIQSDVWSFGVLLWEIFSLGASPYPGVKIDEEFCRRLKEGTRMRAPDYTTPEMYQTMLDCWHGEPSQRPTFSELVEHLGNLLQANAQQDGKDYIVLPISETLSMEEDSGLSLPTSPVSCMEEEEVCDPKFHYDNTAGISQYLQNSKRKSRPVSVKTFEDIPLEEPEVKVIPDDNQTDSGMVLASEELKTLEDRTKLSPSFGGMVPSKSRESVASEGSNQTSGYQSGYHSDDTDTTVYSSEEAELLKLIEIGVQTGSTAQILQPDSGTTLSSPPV

As usually defined, the IC50 is the midpoint of a concentration-inhibition curve. Consider `O=C(Nc1ccc(F)cc1)C1(C(=O)Nc2ccc(Oc3ccnc4cc(-c5ccc(C6CC6)nc5)ccc34)cc2)CC1` [Compound 43, 1-N-[4-[7-(6-Cyclopropylpyridin-3-yl)quinolin-4-yl]oxyphenyl]-1-N′-(4-fluorophenyl)cyclopropane-1,1-dicarboxamide], for which the figures for the half-inhibitory concentration (IC50) at Met, against AXL and against KDR were 100 to 300 nM, 100 to 300 nM and 10 to 100 nM, respectively.
With `O=C(Nc1ccc(F)cc1)C1(C(=O)Nc2ccc(Oc3ccnc4cc(-c5cc(C(F)(F)F)[nH]n5)ccc34)cc2)CC1` [Compound 100, 1-N′-(4-Fluorophenyl)-1-N-[4-[7-[5-(trifluoromethyl)-1H-pyrazol-3-yl]quinolin-4-yl]oxyphenyl]cyclopropane-1,1-dicarboxamide], on Met, the half-maximal inhibitory concentration (IC50) lay within 100 to 300 nM.
Consider `Cc1cc2c(Oc3ccc(NC(=O)C4(C(=O)Nc5ccc(F)cc5)CC4)cc3)ccnc2cc1-c1cn[nH]c1` [Compound 106, 1-N′-(4-Fluorophenyl)-1-N-[4-[6-methyl-7-(1H-pyrazol-4-yl)quinolin-4-yl]oxyphenyl]cyclopropane-1,1-dicarboxamide], for which the IC50 is 10 to 100 nM at Met, 10 to 100 nM on AXL and at most 10 nM against KDR.
In the case of `O=C(Nc1ccc(F)cc1)C1(C(=O)Nc2ccc(Oc3ccnc4cc(-c5cncc(C(F)(F)F)c5)ccc34)cc2)CC1` [Compound 48, 1-N′-(4-Fluorophenyl)-1-N-[4-[7-[5-(trifluoromethyl)pyridin-3-yl]quinolin-4-yl]oxyphenyl]cyclopropane-1,1-dicarboxamide], at Met, the 50% inhibitory concentration (IC50) was in the range of 100 to 300 nM.
Turning to `O=C(Nc1ccc(F)cc1)C1(C(=O)Nc2ccc(Oc3ccnc4cc(C5CCOC5)ccc34)cc2)CC1` (single isomer, unassigned) [Compound 88, 1-N′-(4-Fluorophenyl)-1-N-[4-[7-[oxolan-3-yl]quinolin-4-yl]oxyphenyl]cyclopropane-1,1-dicarboxamide], the values for the half-maximal inhibitory concentration (IC50) on Met, against AXL and at KDR were 10 to 100 nM, over 300 nM and over 300 nM, respectively.
Consider `O=C(Nc1ccc(F)cc1)C1(C(=O)Nc2ccc(Oc3ccnc4cc(-c5ccc(C(F)(F)F)nc5)ccc34)cc2)CC1` [Compound 35, 1-N′-(4-Fluorophenyl)-1-N-[4-[7-[6-(trifluoromethyl)pyridin-3-yl]quinolin-4-yl]oxyphenyl]cyclopropane-1,1-dicarboxamide], for which the 50% inhibitory concentration (IC50) at Met was in the range of 100 to 300 nM.
Still for that read-out and setting: the value for `O=C(Nc1ccc(F)cc1)C1(C(=O)Nc2ccc(Oc3ccnc4cc(-c5cnc6[nH]ccc6c5)ccc34)cc2)CC1` [Compound 44, 1-N′-(4-Fluorophenyl)-1-N-[4-[7-(1H-pyrrolo[2,3-b]pyridin-5-yl)quinolin-4-yl]oxyphenyl]cyclopropane-1,1-dicarboxamide] was 100 to 300 nM.
Take `Cc1ccc(-c2ccc3c(Oc4ccc(NC(=O)C5(C(=O)Nc6ccc(F)cc6)CC5)cc4)ccnc3c2)cn1` [Compound 37, 1-N′-(4-Fluorophenyl)-1-N-[4-[7-(6-methylpyridin-3-yl)quinolin-4-yl]oxyphenyl]cyclopropane-1,1-dicarboxamide]: the half-inhibitory concentration (IC50) on Met was 10 to 100 nM; at AXL, 100 to 300 nM; against KDR, 10 to 100 nM.
With `CN(C(=O)C1(C(=O)Nc2ccc(Oc3ccnc4cc(-c5cnn(C(F)F)c5)ccc34)cc2)CC1)c1ccc(F)cc1` [Compound 126, 1-N-[4-[7-[1-(Difluoromethyl)pyrazol-4-yl]quinolin-4-yl]oxyphenyl]-1-N′-(4-fluorophenyl)-1-N′-methylcyclopropane-1,1-dicarboxamide], the half-inhibitory concentration (IC50) on Met was over 300 nM.
Same read-out and setting: the result for `Cc1cc(-c2ccc3c(Oc4ccc(NC(=O)C5(C(=O)Nc6ccc(F)cc6)CC5)cc4)ccnc3c2)cc(C)n1` [Compound 32, 1-N-[4-[7-(2,6-Dimethylpyridin-4-yl)quinolin-4-yl]oxyphenyl]-1-N′-(4-fluorophenyl)cyclopropane-1,1-dicarboxamide] reads 10 to 100 nM.
With `O=C(Nc1ccc(F)cc1)C1(C(=O)Nc2ccc(Oc3ccnc4cc(-c5ccnc(C(F)(F)F)c5)ccc34)cc2)CC1` [Compound 36, 1-N′-(4-Fluorophenyl)-1-N-[4-[7-[2-(trifluoromethyl)pyridin-4-yl]quinolin-4-yl]oxyphenyl]cyclopropane-1,1-dicarboxamide], the 50% inhibitory concentration (IC50) at Met lay within 100 to 300 nM.
On to `O=C(Nc1ccc(F)cc1)C1(C(=O)Nc2ccc(Oc3ccnc4cc(-c5ccc(N6CCCC6)nc5)ccc34)cc2)CC1` [Compound 49, 1-N′-(4-Fluorophenyl)-1-N-[4-[7-(6-pyrrolidin-1-ylpyridin-3-yl)quinolin-4-yl]oxyphenyl]cyclopropane-1,1-dicarboxamide], for which the half-maximal inhibitory concentration (IC50) at Met and at AXL was 100 to 300 nM throughout.
